Measured values: patent US7786310B2, “Small molecule transcriptional activation domains” (The Regents of the University of Michigan, priority 2004, dated 2010)

Columns and labels:
[1] = system: HeLa nuclear extracts; conditions: for ability to up-regulate transcription (activity in words, compared with AD 1): Example 9 numbering (FIG. 13/14A), ATF14 as positive control, FIG. 15
[2] = system: transcription mediated by 4; experiment: competition/squelching experiment: free activation domain added to in vitro transcription reactions containing the DNA-bound activator; assay type: biochemical, human; conditions: 1-10 μM concentration of free activation domain; FIG. 7
Description: In this experiment, micromolar concentrations of free activation domain are added to transcription reactions containing the DNA-bound activator and the corresponding affect on transcription levels is measured. Results with one of the activation domains (4) is shown (See, e.g., FIGS. 7-8).

CC(C)C[C@]1(C/C=N/NC(=O)CC[C@H](NC(=O)c2ccc(N(C)Cc3cnc4nc(N)nc(N)c4n3)cc2)C(=O)O)C[C@](C)(CO)ON1CC(=O)O (racemic) [isoxazolidine 3, 2-(4({(6-(Amino-methylcarbaminidoylimino-methyl)-pyrazin-2-ylmethyl)-methylamino}-methyl)-benzoylamino)-4-{2-((5RS)-hydroxymethyl-2-(hydroxy-2-oxopropyl)-(3RS)-isobutyl-isoxazolidin-3-yl)-ethylidene-hydrazinocarbonyl}-(S)-butyric acid]
ability to up-regulate transcription (activity in words, compared with AD 1) [1]: indistinguishable from that of AD 1

2-(4({(6-(Amino-methylcarbaminidoylimino-methyl)-pyrazin-2-ylmethyl)-methylamino}-methyl)-benzoylamino)-4-(2-(2-benzyl-(5RS)-hydroxymethyl-(3RS)-isobutylisoxazolidin-3-yl)-ethylidene-hydrazinocarbonyl)-(S)-butyric acid [isoxazolidine 6]
ability to up-regulate transcription (activity in words, compared with AD 1) [1]: function well as transcriptional ADs

2-(4({(6-(Amino-methylcarbaminidoylimino-methyl)-pyrazin-2-ylmethyl)-methylamino}-methyl)-benzoylamino)-4-(2-benzyl-(3RS)-(2-hydroxy-ethyl)-3-isobutylisoxazolidin-(5RS)-ylmethylene-hydrazinocarbonyl)-(S)-butyric acid [isoxazolidine 4]
ability to up-regulate transcription (activity in words, compared with AD 1) [1]: indistinguishable from that of AD 1

COC(OC)C1CC(CCO)(CC(C)C)N(Cc2ccccc2)O1 (centres unmarked) [S8, 2-(2-Benzyl-5-dimethoxymethyl-3-isobutyl-isoxazolidin-3-yl)-ethanol]
suppression of transcription mediated by 4 [2]: ~50%
transcriptional activation when the activation domain is not covalently linked to methotrexate (not localized to DNA) ([1]; isoxazolidine and methotrexate hydrazide 1 added separately in the same reaction, FIG. 6): Little activation
